Test results published in patent US10654828B2 (NOVARTIS AG, priority 2017, dated 2020).
Like-named read-outs stand apart in the source and are kept apart here.

How the values were obtained:
[1] = system: FoxO3a; experiment: FoxO3a inhibition: GFP-FoxO3a nuclear to cytoplasmic translocation reporter assay; type: cell-based; conditions: U2OS GFP-FoxO3a H212R cells, serum starved overnight, compound 30 minutes, ratio of nuclear to cytosolic GFP intensity, DMSO control 0%, read-out: FoxO AC50
How it was run: (§1)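 Serum-starved U2OS cells expressing GFP-FoxO3a H212R treated with compounds 30 min, fixed, imaged. FoxO3a: nuclear/cytosolic GFP ratio, %. AKT: total cellular phospho-AKT (Ser473) antibody staining intensity, %. DMSO set as 0% activity.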

[2] = system: AKT; experiment: AKT activation: Phospho-AKT (Ser473) antibody staining in reporter cells; type: cell-based; conditions: U2OS GFP-FoxO3a H212R cells, serum starved overnight, compound 30 minutes, total cellular intensity of Phospho-AKT (Ser473) staining, DMSO control 0%
How it was run: as §1

Compound: Cc1cc(C(N)=O)nn1-c1ccc2c(ccn2Cc2ccc(C3=CCN(C)CC3)cc2)c1 [Example 1-1, 5-methyl-1-(1-(4-(1-methyl-1,2,3,6-tetrahydropyridin-4-yl)benzyl)-1H-indol-5-yl)-1H-pyrazole-3-carboxamide]
- AC50 ([1]; Homo sapiens, U2OS, 0.5 h): 53 nM
- AC50 ([2]; Homo sapiens, U2OS, 0.5 h): 138 nM

Compound: Cc1cc(C(N)=O)nn1-c1ccc2c(ccn2Cc2ccc(C3=CCN(C)CC3C)cc2)c1 (single isomer, unassigned) [Example 17-3, 1-(1-(4-(1,3-dimethyl-1,2,3,6-tetrahydropyridin-4-yl)benzyl)-1H-indol-5-yl)-5-methyl-1H-pyrazole-3-carboxamide]
- AC50 [1]: 251 nM
- AC50 [2]: 840 nM

Compound: Cc1cc(C(N)=O)nn1-c1ccc2c(ccn2Cc2ccc(CC3CN(C)C3)cc2)c1 [Example 32, 5-methyl-1-(1-(4-((1-methylazetidin-3-yl)methyl)benzyl)-1H-indol-5-yl)-1H-pyrazole-3-carboxamide]
- AC50 ([1]; Homo sapiens, U2OS, 0.5 h): 1040 nM
- AC50 ([2]; Homo sapiens, U2OS, 0.5 h): 4360 nM

Compound: Cc1cc(C(N)=O)nn1-c1ccc2c(ccn2Cc2ccc(-c3ccc(NS(C)(=O)=O)cc3)cc2)c1 [Example 1-33, 5-methyl-1-(1-((4′-(methylsulfonamido)-[1,1′-biphenyl]-4-yl)methyl)-1H-indol-5-yl)-1H-pyrazole-3-carboxamide]
- AC50 ([1]; Homo sapiens, U2OS, 0.5 h): 82 nM
- AC50 ([2]; Homo sapiens, U2OS, 0.5 h): 351 nM

Compound: Cc1cc(C(N)=O)nn1-c1ccc2c(ccn2Cc2ccc(-c3ccc(C(C)(C)O)nc3)cc2)c1 [Example 30-3, 1-(1-(4-(6-(2-hydroxypropan-2-yl)pyridin-3-yl)benzyl)-1H-indol-5-yl)-5-methyl-1H-pyrazole-3-carboxamide]
- AC50 ([1]; Homo sapiens, U2OS, 0.5 h): 126 nM
- AC50 ([2]; Homo sapiens, U2OS, 0.5 h): 572 nM

Compound: Cc1cc(C(N)=O)nn1-c1ccc2c(ccn2Cc2ccc(N3CC4CN(C)CC4C3)cc2)c1 (centres unmarked) [Example 11-3, 5-methyl-1-(1-(4-(5-methylhexahydropyrrolo[3,4-c]pyrrol-2(1H)-yl)benzyl)-1H-indol-5-yl)-1H-pyrazole-3-carboxamide]
- AC50 ([1]; Homo sapiens, U2OS, 0.5 h): 1160 nM
- AC50 ([2]; Homo sapiens, U2OS, 0.5 h): 2970 nM

Compound: Cc1cc(C(N)=O)nn1-c1ccc2c(ccn2Cc2ccc([C@@H]3C[C@@H]4CN(CCS(C)(=O)=O)C[C@@H]4C3)cc2)c1 [Example 42, 5-Methyl-1-(1-(4-((3aR,5r,6aS)-2-(2-(methylsulfonyl)ethyl)octahydrocyclopenta[c]pyrrol-5-yl)benzyl)-1H-indol-5-yl)-1H-pyrazole-3-carboxamide]
- AC50 ([1]; Homo sapiens, U2OS, 0.5 h): 69 nM
- AC50 ([2]; Homo sapiens, U2OS, 0.5 h): 230 nM

Compound: Cc1cc(C(N)=O)nn1-c1ccc2c(ccn2Cc2ccc(-c3ccc(S(=O)(=O)CCO)cc3)cc2)c1 [Example 18, 1-(1-((4′-((2-hydroxyethyl)sulfonyl)-[1,1′-biphenyl]-4-yl)methyl)-1H-indol-5-yl)-5-methyl-1H-pyrazole-3-carboxamide]
- AC50 ([1]; Homo sapiens, U2OS, 0.5 h): 57 nM
- AC50 ([2]; Homo sapiens, U2OS, 0.5 h): 110 nM

Compound: Cc1cc(C(N)=O)nn1-c1ccc2c(ccn2Cc2ccc(-c3ccc4nccn4c3)cc2)c1 [Example 1-7, 1-(1-(4-(imidazo[1,2-a]pyridin-6-yl)benzyl)-1H-indol-5-yl)-5-methyl-1H-pyrazole-3-carboxamide]
- AC50 ([1]; Homo sapiens, U2OS, 0.5 h): 194 nM
- AC50 ([2]; Homo sapiens, U2OS, 0.5 h): 680 nM

Compound: COc1ccc(-c2ccc(Cn3ccc4cc(-n5nc(C(N)=O)cc5C)ccc43)cc2)cc1 [Example 1-30, 1-(1-((4′-methoxy-[1,1′-biphenyl]-4-yl)methyl)-1H-indol-5-yl)-5-methyl-1H-pyrazole-3-carboxamide]
- AC50 ([1]; Homo sapiens, U2OS, 0.5 h): 216 nM
- AC50 ([2]; Homo sapiens, U2OS, 0.5 h): 952 nM

Compound: Cc1cc(C(N)=O)nn1-c1ccc2c(ccn2Cc2ccc(-c3ccc(C(=O)N4CCN(C)CC4)cc3)cc2)c1 [Example 36, 5-methyl-1-(1-((4′-(4-methylpiperazine-1-carbonyl)-[1,1′-biphenyl]-4-yl)methyl)-1H-indol-5-yl)-1H-pyrazole-3-carboxamide]
- AC50 ([1]; Homo sapiens, U2OS, 0.5 h): 49 nM
- AC50 ([2]; Homo sapiens, U2OS, 0.5 h): 39 nM

Compound: Cc1cc(C(N)=O)nn1-c1ccc2c(ccn2Cc2ccc(C3CCCN(C)CC3)cc2)c1 (single isomer, unassigned) [Example 29-1, 5-methyl-1-(1-(4-(1-methylazepan-4-yl)benzyl)-1H-indol-5-yl)-1H-pyrazole-3-carboxamide]
- AC50 ([1]; Homo sapiens, U2OS, 0.5 h): 483 nM
- AC50 ([2]; Homo sapiens, U2OS, 0.5 h): 1690 nM

Compound: Cc1cc(C(N)=O)nn1-c1ccc2c(ccn2Cc2ccc(-c3cnc(N(C)C)nc3)cc2)c1 [Example 1-36, 1-(1-(4-(2-(dimethylamino)pyrimidin-5-yl)benzyl)-1H-indol-5-yl)-5-methyl-1H-pyrazole-3-carboxamide]
- AC50 ([1]; Homo sapiens, U2OS, 0.5 h): 477 nM
- AC50 ([2]; Homo sapiens, U2OS, 0.5 h): 1050 nM

Compound: Cc1cc(C(N)=O)nn1-c1ccc2c(ccn2Cc2ccc(-c3ccc(CN4CCC[C@H]4CO)cc3)cc2)c1 [Example 34-1, (S)-1-(1-((4′-((2-(hydroxymethyl)pyrrolidin-1-yl)methyl)-[1,1′-biphenyl]-4-yl)methyl)-1H-indol-5-yl)-5-methyl-1H-pyrazole-3-carboxamide]
- AC50 ([1]; Homo sapiens, U2OS, 0.5 h): 119 nM
- AC50 ([2]; Homo sapiens, U2OS, 0.5 h): 184 nM

Compound: Cc1cc(C(N)=O)nn1-c1ccc2c(ccn2Cc2ccc(-c3ccc(CN4CCN(C)CC4)cc3)cc2)c1 [Example 34-3, 5-methyl-1-(1-((4′-((4-methylpiperazin-1-yl)methyl)-[1,1′-biphenyl]-4-yl)methyl)-1H-indol-5-yl)-1H-pyrazole-3-carboxamide]
- AC50 ([1]; Homo sapiens, U2OS, 0.5 h): 131 nM
- AC50 ([2]; Homo sapiens, U2OS, 0.5 h): 266 nM

Compound: Cc1cc(C(N)=O)nn1-c1ccc2c(c1)c(C1CCOCC1)cn2Cc1ccc(-c2ccc(S(C)(=O)=O)cc2)cc1 [Example 20, 5-methyl-1-(1-((4′-(methylsulfonyl)-[1,1′-biphenyl]-4-yl)methyl)-3-(tetrahydro-2H-pyran-4-yl)-1H-indol-5-yl)-1H-pyrazole-3-carboxamide]
- AC50 ([1]; Homo sapiens, U2OS, 0.5 h): 68 nM
- AC50 ([2]; Homo sapiens, U2OS, 0.5 h): 186 nM

Compound: Cc1cc(C(N)=O)nn1-c1ccc2c(ccn2Cc2ccc(C3=CCN(C(=O)CCCN(C)C)CC3)cc2)c1 [Example 10]
- AC50 ([1]; Homo sapiens, U2OS, 0.5 h): 189 nM
- AC50 ([2]; Homo sapiens, U2OS, 0.5 h): 512 nM

Compound: COc1ncc(-c2ccc(Cn3ccc4cc(-n5nc(C(N)=O)cc5C)ccc43)cc2)cn1 [Example 1-28, 1-(1-(4-(2-methoxypyrimidin-5-yl)benzyl)-1H-indol-5-yl)-5-methyl-1H-pyrazole-3-carboxamide]
- AC50 ([1]; Homo sapiens, U2OS, 0.5 h): 223 nM
- AC50 ([2]; Homo sapiens, U2OS, 0.5 h): 1170 nM

Compound: Cc1cc(C(N)=O)nn1-c1ccc2c(ccn2Cc2ccc(-c3ccc(S(=O)(=O)CCN4CCN(C)CC4)cc3)cc2)c1 [Example 19, 5-methyl-1-(1-((4′-((2-(4-methylpiperazin-1-yl)ethyl)sulfonyl)-[1,1′-biphenyl]-4-yl)methyl)-1H-indol-5-yl)-1H-pyrazole-3-carboxamide]
- AC50 ([1]; Homo sapiens, U2OS, 0.5 h): 61 nM
- AC50 ([2]; Homo sapiens, U2OS, 0.5 h): 142 nM

Compound: Cc1cc(C(N)=O)nn1-c1ccc2c(ccn2Cc2ccc(-c3ccc(CO)cc3)cc2)c1 [Example 1-32, 1-(1-((4′-(hydroxymethyl)-[1,1′-biphenyl]-4-yl)methyl)-1H-indol-5-yl)-5-methyl-1H-pyrazole-3-carboxamide]
- AC50 ([1]; Homo sapiens, U2OS, 0.5 h): 205 nM
- AC50 ([2]; Homo sapiens, U2OS, 0.5 h): 578 nM

Compound: Cc1cc(C(N)=O)nn1-c1ccc2c(ccn2Cc2ccc(-c3cnc4[nH]ccc4c3)cc2)c1 [Example 1-16, 1-(1-(4-(1H-pyrrolo[2,3-b]pyridin-5-yl)benzyl)-1H-indol-5-yl)-5-methyl-1H-pyrazole-3-carboxamide]
- AC50 ([1]; Homo sapiens, U2OS, 0.5 h): 147 nM
- AC50 ([2]; Homo sapiens, U2OS, 0.5 h): 451 nM

Compound: Cc1cc(C(N)=O)nn1-c1ccc2c(ccn2Cc2ccc(-c3ccc(N(C)C)nc3)cc2)c1 [Example 1-23, 1-(1-(4-(6-(dimethylamino)pyridin-3-yl)benzyl)-1H-indol-5-yl)-5-methyl-1H-pyrazole-3-carboxamide]
- AC50 ([1]; Homo sapiens, U2OS, 0.5 h): 93 nM
- AC50 ([2]; Homo sapiens, U2OS, 0.5 h): 293 nM
